Assay results reported in the supplement of paper PMC10307832.

What was measured:
Experiment in all cases: relative viability (nuclei count vs DMSO), 5 days (fraction); higher = more cells survive
201T = system: 201T
Summary of the method: (§1)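 Lung cancer cell lines in 1536-well plates got either a single drug or a fixed anchor-drug dose together with five library-drug doses (not always all listed) in √10 steps, by pin tool, on the day after seeding. Nuclei were counted after 5 days, and relative viability is the treated-to-vehicle ratio of nuclei counts. Values are medians of duplicate plates.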

A-427 = system: A-427
Summary of the method: as §1

COR-L23 = system: COR-L23
Summary of the method: as §1

H3255 = system: H3255
Summary of the method: as §1

LCLC-103H = system: LCLC-103H
Summary of the method: as §1

LCLC-97TM1 = system: LCLC-97TM1
Summary of the method: as §1

LU99A = system: LU99A
Summary of the method: as §1

NCI-H1563 = system: NCI-H1563
Summary of the method: as §1

NCI-H1650 = system: NCI-H1650
Summary of the method: as §1

NCI-H1651 = system: NCI-H1651
Summary of the method: as §1

Clc1ccc(Nc2nnc(Cc3ccncc3)c3ccccc23)cc1 [Vatalanib] + CC(C)C[C@H](NC(=O)[C@H](Cc1ccccc1)NC(=O)c1cnccn1)B(O)O [Bortezomib] (partner 0.002 µM)
relative viability (201T; first compound 0.04 µM): 1.08
relative viability (201T; first compound 0.1265 µM): 1.11
relative viability (201T; first compound 0.4 µM): 1.11
relative viability (201T; first compound 1.265 µM): 1.08
relative viability (201T; first compound 4 µM): 1.13
relative viability (A-427; first compound 0.04 µM): 0.965
relative viability (A-427; first compound 0.1265 µM): 0.926
relative viability (A-427; first compound 0.4 µM): 0.96
relative viability (A-427; first compound 1.265 µM): 0.941
relative viability (A-427; first compound 4 µM): 0.997
relative viability (COR-L23; first compound 0.04 µM): 1.1
relative viability (COR-L23; first compound 0.1265 µM): 0.934
relative viability (COR-L23; first compound 0.4 µM): 1.01
relative viability (COR-L23; first compound 1.265 µM): 1.01
relative viability (COR-L23; first compound 4 µM): 0.942
relative viability (H3255; first compound 0.04 µM): 0.627
relative viability (H3255; first compound 0.1265 µM): 0.764
relative viability (H3255; first compound 0.4 µM): 0.494
relative viability (H3255; first compound 1.265 µM): 0.47
relative viability (H3255; first compound 4 µM): 0.713
relative viability (LCLC-103H; first compound 0.04 µM): 1.07
relative viability (LCLC-103H; first compound 0.1265 µM): 1.12
relative viability (LCLC-103H; first compound 0.4 µM): 1.07
relative viability (LCLC-103H; first compound 1.265 µM): 1.01
relative viability (LCLC-103H; first compound 4 µM): 1.13
relative viability (LCLC-97TM1; first compound 0.04 µM): 0.529
relative viability (LCLC-97TM1; first compound 0.1265 µM): 0.523
relative viability (LCLC-97TM1; first compound 0.4 µM): 0.528
relative viability (LCLC-97TM1; first compound 1.265 µM): 0.31
relative viability (LCLC-97TM1; first compound 4 µM): 0.769
relative viability (LU99A; first compound 0.04 µM): 1.19
relative viability (LU99A; first compound 0.1265 µM): 1.16
relative viability (LU99A; first compound 0.4 µM): 1.27
relative viability (LU99A; first compound 1.265 µM): 1.22
relative viability (LU99A; first compound 4 µM): 1.19
relative viability (NCI-H1563; first compound 0.04 µM): 0.868
relative viability (NCI-H1563; first compound 0.1265 µM): 0.855
relative viability (NCI-H1563; first compound 0.4 µM): 1.09
relative viability (NCI-H1563; first compound 1.265 µM): 0.814
relative viability (NCI-H1563; first compound 4 µM): 0.732
relative viability (NCI-H1650; first compound 0.04 µM): 0.196
relative viability (NCI-H1650; first compound 0.1265 µM): 0.217
relative viability (NCI-H1650; first compound 0.4 µM): 0.206
relative viability (NCI-H1650; first compound 1.265 µM): 0.174
relative viability (NCI-H1650; first compound 4 µM): 0.195
relative viability (NCI-H1651; first compound 0.04 µM): 0.906
relative viability (NCI-H1651; first compound 0.1265 µM): 0.917
relative viability (NCI-H1651; first compound 0.4 µM): 0.959
relative viability (NCI-H1651; first compound 1.265 µM): 0.941
